One may read the IC50 as the concentration needed to halve the response being measured.

In test [1] the test system is ConA stimulated human lymphocytes. As to the kind of experiment: Human mitogenic (ConA) stimulation, 3H-thymidine incorporation. It is filed as cell-based. On the procedure:
Blood from healthy volunteers was drawn using venipuncture, using Vacutainer collection sets and heparinized collection vials. The blood was diluted 1:1 using HBSS to a total volume of 30 ml in 50 ml conical tubes (Fisher Scientific, Co., Pittsburgh, Pa.). […] Cells from the buffy coats were collected and the residual Histopaque was washed away using repeated centrifugations in HBSS. After washes, cells were resuspended at 5 million cells per ml in RPMI, supplemented with 2% FBS. To remove adherent cells, the suspension was plated onto a 6 well flat-bottom plate (Corning Costar), 3 ml/well, and incubated for 2 hours at 37° C., 5% CO2. Non-adherent cells were harvested after this incubation, were counted and resuspended in RPMI supplemented with 10% human serum (Sigma).
All drugs were pre-plated before the cell suspension was added onto each well of a 96-well round-bottom plate. All experimental conditions were assayed in at least triplicate. Cells suspended in RPMI supplemented with 10% human serum were plated at 100,000 cells per well to a final volume of 200 μl. […] Control samples received no ConA stimulation. The plates were incubated at 37° C. and 5% CO2.

Test [2] has as its system allogeneic stimulation of human lymphocytes. Briefly: Human mixed lymphocyte reaction (allogeneic stimulation), 3H-thymidine. The format is cell-based. An excerpt: Blood from two healthy, non-related, donors was taken as described above. Peripheral blood mononuclear cells were isolated as described previously elsewhere. The adherent cells were separated from the suspension cells as described previously for both donors. Suspension cells from both donors (donors A and B) were used as responders. The remaining adherent cells from each of the donors were used as stimulators against a different donor (suspension A against adherent B and adherent A against suspension B). The stimulator cells were irradiated at 35 Gy. Drugs were pre-plated onto 96 well, U-bottom plates in triplicate. 200,000 “stimulator” cells in RPMI supplemented with 10% human serum were then plated in each well. 200,000 “responder” cells in the same medium were then plated over stimulators to a final volume of 200 μl/well. Background controls received either no stimulator cells, or no responder cells. The plates were incubated at 37° C. and 5% CO2. 1 μCi of tritiated thymidine was added to each well after 4.5 days, and the plates were harvested 12 hours later.

Test [3] concerns RPMI 8226 multiple myeloma cells. Briefly: RPMI 8226 cell viability and proliferation (trypan blue, MTT, 3H-thymidine). The format is cell-based, human. The following applies: 3H-thymidine uptake, drug titration (FIGS. 19-25, 31, 32). On the procedure:
The human plasmacytoma (multiple myeloma) cell line, RPMI 8226 (American Type Culture Collection, Manassas, Va.), was cultured in RPMI 1640 supplemented with 10 mM HEPES, 1 mM sodium pyruvate, 4.5 g/L glucose, 1.5 g/L bicarbonate and 20% FBS (non-heat inactivated).
Cell proliferation was assayed by three methods—Trypan Blue Exclusion was used to quantify the number of viable cells in culture; 3-(4,5-dimethylthiazol-2-yl)-2,5-diphenyl tetrazolium bromide (MTT) reduction was used to assay mitochondrial activity (and thus cell viability); and ^3H-Thymidine uptake was employed to assay for active DNA synthesis.
Three separate indicators of cell proliferation were employed to study the effects of 5-HT receptor modulating agents on the human multiple myeloma cell line, RPMI 8226. Cells were plated at 4 separate densities and were treated with LY53587 (an antagonist of the 5-HT2A/2B/2C receptors) at a range of concentrations. The exclusion of trypan blue dye was used as an indicator of cell viability. Cell numbers were then plotted against the concentration of drug added.
MTT reduction was also used as an indicator of cell viability (more specifically, mitochondrial activity). Absorbance values at OD570 were then plotted against drug concentration. Finally, DNA synthesis was assayed, through the measurement of ^3H-thymidine uptake, and counts per minute (CPMs) were plotted against drug concentration.
Culturing and administration of drugs and ^3H-thymidine were performed as described elsewhere herein.

Test [4] deals with RPMI 8226 cells. Briefly: DNA fragmentation (internucleosomal laddering). The format is cell-based, human. Particulars: RPMI 8226 cells (FIGS. 26, 35). On the procedure:
Cells (8×10^5) were washed with ice-cold PBS following experimental treatments and pelleted by centrifugation (500×g, 5 min). Cell pellets were incubated for 5 minutes on ice in lysis buffer (1% IGEPAL-CA630, 20 mM EDTA, 50 mM Tris-HCL, pH 7.5). Lysates were centrifuged at about 1,600×g for 5 minutes. 501 μL of lysis buffer was added to the supernatant. The extract was brought to 1% SDS and treated for 2 hours with 5 μg/μL Rnase A (57° C.) followed by treatment with 2.5 μg/μL proteinase K for 2 hours (37° C.). After digestion of RNA and protein, half volume of 10 M ammonium acetate was added and the DNA was precipitated using 2.5 volumes of ethanol, washed in 70% ethanol, air-dried, and dissolved in TE buffer. DNA fragments were separated by electrophoresis in 1.5% agarose gels using a protocol adapted from Siegel et al. (1998, Proc. Natl. Acad. Sci. USA 95:162-166).

In test [5] the test system is RPMI-8226 cells. As to the kind of experiment: Cytospin histochemistry (H&E, bis-benzamide) for chromatin. It is filed as cell-based, human. The following applies: 9 hour treatments; 50 μM SB compounds, 2 μM camptothecin (FIGS. 28, 29). As to the method:
2.0×10^5 RPMI-8226 cells were cultured, in 6-well culture plates, in the presence of the indicated drug concentrations, in a total of 5 mL RPMI-1640 supplemented with 10% FBS. Each well was harvested in its entirety and divided into two identical samples for cytospins.
1.0×10^5 RPMI-8226 cells from each treatment group were loaded into Cyto-funnels and centrifuged at 500 rpm for 4 minutes with medium acceleration. Slides were then fixed through graded methanol in PBS (100%, 5 minutes; 80%, 5 minutes; 50%, 5 minutes), washed for 5 minutes in PBS and stored in PBS at 4° C. until stained.
Cytospun slides were stained with Hematoxylin and Eosin, followed by the nuclear stain, bis-benzamide, rinsed and mounted according to standard staining protocols. Slides were visualized under both brightfield and fluorescent light to generate matched images of the same slide field (see, e.g., FIGS. 28 and 29).

Test [6] has as its system cells. Briefly: Cell morphology change on inhibition of serotonergic signalling. The format is cell-based. The following applies: after 24 hours of treatment (FIG. 30). On the procedure:
Briefly, cells were incubated with a 5-HTR antagonist (e.g., a selective type 1B inhibitor SD 216641) and the effects of treatment were assessed after 24 hours. […] For instance, detection of cell changes can be assessed using optical instruments (electron and light microscopy, as well as fluorescence activated cell sorting, and the like), or any other device that assesses and detects changes in cell size, density, morphology, and the like. Such devices are well known in the art and are not recounted here.

The subject of test [7] is AKT. Briefly: Western blot of phospho-(ser473)-AKT. It is filed as cell-based, human. The following applies: RPMI-8226 cells, 0, 6.25, 12.5, 25 μM for 3 hours (FIG. 37). As to the method:
5×10^6 cells RPMI-8226 cells were treated with 0, 6.25, 12.5, and 25 μM SB216641 for 3 hours. Cells were lysed in lysis buffer (1% IGEPAL CA-635, 150 mM NaCl, 20 mM Tris-Cl pH 7.4, 1 mM PMSF, 1 mM EGTA, 1 mM NaF, 1 μg/mL aprotinin, 10 μg/mL leupeptin, 1 mM Na2OVa, 5 mM BGP) on ice for 15 minutes followed by centrifugation for 10 min to clear the lysate of membrane fragment. Supernatants were collected and protein concentrations determined with the BioRad Detergent Compatible Kit (Hercules, Calif.).
One-hundred micrograms of protein were loaded into each lane and separated through a 4% SDS-PAGE stacking gel and a 12% SDS-PAGE resolving gel. Proteins were electro-transferred to a 0.2 μm nitrocellulose membrane in transfer buffer (25 mM Tris, 192 mM glycine, 20% methanol, 0.1% SDS). Membranes were immuno-blotted with an anti-phosphoAkt antibody (New England Biolabs, Beverly, Mass.) to the serine-473 phosphorylation residue required for AKT activation and any antibody bound was visualized using an enhanced chemiluminescent system.
(In general: A western blot detects proteins with antibodies after separation by electrophoresis.)

The test system of test [8] is ConA stimulated human lymphocytes. Briefly: Viable cell counts (trypan blue) during ConA stimulation. The format is cell-based. Particulars: 10 μg/ml ConA, manual counts over time (FIG. 11). As to the method: FIG. 11 is a diagram depicting the effect of a 5HT type 1 receptor antagonist and a 5HT type 2 receptor antagonist on the cell numbers occurring during the mitogenic stimulation of human lymphocyte activation. The cells were stimulated with 10 μg/ml ConA. The cells were repurified on a Ficoll gradient prior to addition of the inhibitor. Trypan blue exclusion was used to count the viable cells.
To further assess the effects of propanolol (a general 5-HTR 1 antagonist) and risperidone (a general 5-HTR 2 antagonist) on the mitogenically stimulated lymphocyte culture, the number of viable cells were manually counted as the assay progressed. If the cells were not stimulated, there was no detectable change in the number of viable cells. When the cells were stimulated with ConA, a small lag period was observed and the beginning of the growth phase compared to the stimulation response curve observed in the absence of the inhibitor. […] Apparently, there is no decrease or increase compared with the starting cell numbers. It is unclear whether or not this is due too anergy, an inability to initiate the activation pathway, or both. […] Thus, based on the data presented here, the classes of antagonists that inhibit the type 2 serotonin receptors appear to be rate limiting for the lymphocyte activation processes.

Test [9] concerns allogeneic CTL response against P815 cells. Briefly: Murine allograft model, CTL killing of P815 target cells by splenocytes. The format is in vivo, C57BL/6J mice. Particulars: 5HT antagonists 200 μg/injection tail vein days 6 and 8; Cyclosporin A 100 μg ip daily from day −2; sacrifice day 14 (FIGS. 13, 14). On the procedure:
The in vivo validation screen used was an art-recognized murine allogeneic rejection model as described in Zhan et al., 2000. For this assay, a complete MHC miss-match system was employed wherein 5×10^6 P815 cells ([H-2^d] DBA/2 mastocytoma) were injected into the peritoneal cavity of C57BL/6J (H-2^b) mice on day 0 of the experiment. These mice typically generate a strong cytotoxic T lymphocyte (CTL) reaction in response to P815 cells. Following the initial P815 cell inoculation, the mice were allowed to develop a CTL response (this usually takes about 10-14 days). […] Mice were then sacrificed on day 14 of the experiment as indicated in the figures; and the allogeneic CTL response was assayed as described previously (Tretiakova et al., 2000, Nature Biotechnology 18:984-988). The primary spleen cells from the treated and untreated animals were used in the direct CTL readout. Freshly obtained primary spleen cells were incubated with the [^3H] labeled target cells (P815 cells) at 100:1, 50:1, 25:1, and 12.5:1 ratios for 3.5 hours at 37° C. and harvested using a PHD harvester. The percentage of specific killing was determined using the formula % kill=(S−E)/S, where S is the amount of the DNA retained by the target cells in the absence of the effector cells and E is the amount of retained DNA in the presence of the effector cells (expressed in counts per minute; cpm).
This is an art-recognized model of allograft […] rejection based on that described by […]. (2000). In this model, there is a complete MHC mismatch between the P815 cells (H-2^d) and the C57BL6 mouse (H-2^b), thus ensuring an aggressive immune response. The data disclosed in FIG. 13, depicts results of experiments that included 6 treatment groups, each group consisting of three mice. Each mouse received 5×10^6 P815 cells injected into the peritoneal cavity on day 0 of the study. The first group was an untreated control group, which was used to establish the baseline response of the mice against the allogeneic stimulus. These mice, without any further treatments, were sacrificed, as were the other treatment groups, on day 14 of the study and their splenocytes assayed for target-specific killing of the P815 cells.
The average kill observed for the untreated group was about 45% at an effector to target ratio of 100:1. The second group was treated with risperidone, a 5HT-2 antagonist, administered via a tail vein bolus injection (200 μg/injection) on days 6 and 8 of the study. The timing of the drug administration was selected to ensure that the T cells were fully activated prior to the drug treatment. The third group was treated with propanolol, a 5HT-1 antagonist. All of the 5HT receptor antagonist-treated groups were treated as described for the risperidone-treated group. The fourth group was treated chronically with CyclosporinA. The Cyclosporin A was administered ip at a dosage of 100 μg/injection starting two days prior to the onset of the study, i.e., at day −2, and the injections were continued on a daily basis for the duration of the study.
Finally, studies conducted in vivo using the CD8-dependent allograft rejection model, in which P815 cells (a rapidly growing cell line taken from a mastocytoma in a DBA mouse), were expanded and used to create a robust rejection response in a C57BL6 mouse. In this study the mice received 5×10^6 P815 cells injected into their peritoneal cavity on day 0 of the study. The first group was an untreated control group (naïve animals), used to acquire the baseline response of the mice against the allogeneic stimulus. The positive controls were treated with the allogeneic cells without any further treatments. These animals were used to assess the induced allogeneic response against the P815 cells. […]

Entries after “also recorded” stand apart in the source; their conditions may differ.

With `COc1ccc(NC(=O)c2ccc(-c3ccc(-c4noc(C)n4)cc3C)cc2)cc1OCCN(C)C` [SB 216641], the “activation / proliferative response” value is reported as “complete inhibition of the activation response” in test [1] (5 μg/ml ConA, harvest 72 hours, drug titration (FIGS. 7A, 8A, 9A, 17, 33)) and “complete inhibition of the activation response” in test [2] (allogeneic stimulation, harvest 120 hours, drug titration (FIGS. 7B, 8B, 9B)). Further, the IC50 was roughly 200 nM in test [1] (ConA stimulation, read-out: apparent IC50) and roughly 50 nM in test [2] (allogeneic stimuli (weaker signal strength), read-out: apparent IC50). Also, the “growth / proliferation of RPMI 8226 cells” value in [3] is listed as “completely inhibited the growth of the cancer cells”. Further, in [4], the DNA laddering result is on record as “increase in DNA laddering over control cell extracts”. In test [5], the “chromatin condensation / fragmentation (apoptosis)” value was “Extensive chromatin condensation and nuclear fragmentation; also recorded: induced programmed cell death comparable to that induced by the topoisomerase I inhibitor, camptothecin”. Also, the “change in cell morphology” value in test [6] is on record as “an increase in cell size”. Moreover, the “phospho-(ser473)-AKT level” value in test [7] was “down-regulates the activity of AKT”; in test [7] (listed as SB216641), “dose dependant decrease in phosphor-(ser473)-AKT”.

On to `Cc1nc2n(c(=O)c1CCN1CCC(c3noc4cc(F)ccc34)CC1)CCCC2` [risperidone], for which the “number of viable cells” value in test [8] is reported as “caused a brief cell increase, followed by the elimination of the cells in culture”. The “allograft (CTL) response” value in [9] is reported as “inhibited the allograft response to varying degrees”.

These data come from patent US20060135415A1, “Immunomodulation and effect on cell processes relating to serotonin family receptors and the blood-brain barrier” (priority 2002, published 2006).
